Measured values reported in publication PMC12612594, “Nuclear Magnetic Resonance‐based fragment screen of the E3 ligase Fem‐1 homolog B” (Protein Science : A Publication of the Protein Society, 2025).

Columns and labels:
FEM1B‐12 = FEM1B‐12 (Homo sapiens, UniProt Q9UK73); assay: NMR titration (1H-13C-methyl SOFAST HMQC) of fragments; type: binding; conditions: for Kd: fragment 0.0625–2 mM, 100 μM 13C-methyl labeled FEM1B‐12, 310 K, Hill's equation model, read-out: Kd (dissociation constant by NMR titration); for higher affinity than the reference molecule VU0417412: ratio of KD values vs VU0417412
Method: Using ^1H‐^13C‐methyl SOFAST HMQC NMR, 4608 structurally diverse fragments were prepared as 12‐fragment mixtures at the concentration of 800 μM per compound and screened against 100 μM FEM1B‐12. The spectra of FEM1B in the presence of the fragment mixtures were compared to the spectrum of ligand‐free FEM1B to identify fragment hits. Twelve‐fragment mixture hits were subsequently deconvoluted by testing individual fragments for binding. In total, 18 fragment hits were identified ([…]) in the screen. Three chemical shift patterns were observed among the 18 fragment hits (Figure 2), with pattern three having two sub‐patterns with the same residues shifting in different directions. […] The dissociation constants of the fragments were determined by NMR titration using fragment concentrations ranging from 0.0625 to 2 mM (Figure 2) (Henning et al., [2022]).
All ^15N‐TROSY NMR experiments were carried out at 310 K using a 900 MHz Bruker Avance III spectrometer equipped with a TXI/TCI CryoProbe and a Bruker SampleJet. All 1H‐13C‐SOFAST HMQC NMR experiments were carried out at 310 K using a 600 MHz Bruker AV‐III‐600 Spectrometer with a TCI CryoProbe and a Bruker SampleJet. Two‐dimensional ^1H‐^15 TROSY spectra of 150 μM FEM1B‐12 and ^1H‐^13C‐SOFAST HMQC spectra of 100 μM FEM1B‐12 were recorded using 30‐min acquisition times and analyzed using Topspin 4.1.4 (Bruker).
HMQC titration experiments were used to determine binding affinity of the fragment hits identified from the screen. The changes in ^1H‐^13C chemical shifts of selectively labeled sidechain resonances upon the addition of increasing concentrations of the fragments (0.0625–2 mM) were analyzed. The binding affinities (KDs) of the fragments were calculated using the Hill's equation model in Prism 10 (GraphPad).

recombinant mouse FEM1B = test system: recombinant mouse FEM1B; design: method as in Henning et al., [2022]; conditions: TAMARA‐FNIP1 degron, ref Henning et al., [2022], read-out: 50% inhibitory concentration (IC50); cited from earlier work
FEM1B [1] = test system: FEM1B; design: method as in Henning et al., [2022]; conditions: ref Henning et al., [2022]; cited from earlier work
FEM1B [2] = assay: LC-coupled tandem mass spectrometry, site of covalent attachment; type: binding; conditions: FEM1B incubated with five times the concentration of compound for 48 h, trypsin digest, LC-MS/MS
Method: To assess the potential for covalent binding of VU0416476 to FEM1B, we used LC‐coupled tandem mass spectrometry to identify the site of covalent attachment. After FEM1B was incubated with five times the concentration of VU0416476 for 48 h, the protein was digested with sequencing‐grade trypsin, and peptides were analyzed by LC‐MS/MS.
FEM1B incubated with five times the concentration of VU0416476 were brought to a final concentration of 5% SDS, reduced with 20 mM DTT at 55°C for 20 min, and alkylated with 40 mM iodoacetamide for 30 min in the dark at room temperature. The samples were then prepared for digestion on S‐Trap™ micro spin columns (ProtiFi) following the manufacturer's instructions. Aqueous phosphoric acid was added to a final concentration of 2.5%, followed by the addition of 90% methanol containing 100 mM TEAB (S‐Trap binding/wash buffer) at 6× the volume. Samples were loaded onto S‐Trap columns and centrifuged at 4000g. Columns were washed four times with binding/wash buffer. […] Eluted peptides were dried in a speed‐vac concentrator, reconstituted in aqueous 0.2% formic acid, and analyzed by LC‐coupled tandem mass spectrometry (LC–MS/MS) using similar methods to those described in the work of Howard et al. ([2024]). […] Peptides were eluted at a flow rate of 350 nL/min, using a 90‐min gradient, and were analyzed on an Orbitrap Exploris 480 mass spectrometer (Thermo Scientific). […]

Sequence of FEM1B‐12 (Q9UK73 1-356): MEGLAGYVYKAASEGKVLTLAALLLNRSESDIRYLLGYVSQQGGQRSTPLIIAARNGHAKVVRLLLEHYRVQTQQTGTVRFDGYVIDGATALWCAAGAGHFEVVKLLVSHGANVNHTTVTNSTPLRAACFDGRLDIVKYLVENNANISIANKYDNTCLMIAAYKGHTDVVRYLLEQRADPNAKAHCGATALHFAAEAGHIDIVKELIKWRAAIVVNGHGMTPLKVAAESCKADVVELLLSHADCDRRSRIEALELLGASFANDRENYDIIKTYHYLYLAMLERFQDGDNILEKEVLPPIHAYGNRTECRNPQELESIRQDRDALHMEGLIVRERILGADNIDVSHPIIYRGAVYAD

Compound	Kd (FEM1B‐12)	further results
COCc1ccc(NC(=O)c2cccs2)cc1 [VU0175318]	100 µM	higher affinity than the reference molecule VU0417412 (FEM1B‐12): 2.8 ×
N#CCCN(C(=O)CCl)c1ccc2c(c1)OCCO2 [EN106]		IC50 (recombinant mouse FEM1B): 2.2 µM; site of covalent binding (FEM1B [1]): covalently bind to Cys186
O=C(Nc1ccc(F)cc1)c1cccs1 [VU0417412]	280 µM	
O=C(O)c1cccc(N2CCCC2=O)c1 [VU0081201]	1130 µM	
CC(C)(C)N1C(=O)c2ccc(C(=O)O)cc2C1=O [VU0023775]	960 µM	
CC(C)c1ccc(NC(=O)c2cnccn2)cc1 [VU0412674]	260 µM	
CC(C)(C)n1ncc(Cl)c(Cl)c1=O [VU0416476]		site of covalent attachment (FEM1B [2]): covalently binds to Cys186
CC(=O)c1cccc(NC(=O)c2cccs2)c1 [VU0013947]	80 µM	higher affinity than the reference molecule VU0417412 (FEM1B‐12): 3.5 ×
